ChEMBL document CHEMBL5325473, “Conformational study into N-alkyl-N'-aryl ureas to inform drug discovery” (Bioorg Med Chem, 2023)
In brackets after ≈: the same amount, converted by molar mass.

Experiments:
[1] = biological target: Epidermal growth factor receptor (Mus musculus, UniProt Q01279); assay: Displacement of probe N-(4-(4-(3-((4-((3-chloro-4-fluorophenyl)amino)-7-methoxyquinazolin-6-yl)oxy)propyl)piperazin-1-yl)-4-oxobutyl)-3-(5,5-difluoro-7,9-dimethyl-5H-5l4,6l4-dipyrrolo[1,2-c:2',1'-f][1,3,2]diazaborinin-3-yl)propenamide from C-terminal His-tagged wild type mouse EGFR incubated for 30 mins by probe displacement based TR-FRET assay
[2] = biological target: Cyclin-dependent kinase 2 (Homo sapiens, UniProt P24941); assay: Binding affinity to human Avi-tagged CDK2 expressed in Escherichia coli BL21 DE3 assessed as dissociation constant by Surface plasmon resonance analysis
[3] = Aqueous solubility of compound at pH 7.4; format: physicochemical
[4] = Chromatographic hydrophobicity index, log D of the compound by HPLC analysis; format: physicochemical

Epidermal growth factor receptor, sequence (Q01279 whole entry): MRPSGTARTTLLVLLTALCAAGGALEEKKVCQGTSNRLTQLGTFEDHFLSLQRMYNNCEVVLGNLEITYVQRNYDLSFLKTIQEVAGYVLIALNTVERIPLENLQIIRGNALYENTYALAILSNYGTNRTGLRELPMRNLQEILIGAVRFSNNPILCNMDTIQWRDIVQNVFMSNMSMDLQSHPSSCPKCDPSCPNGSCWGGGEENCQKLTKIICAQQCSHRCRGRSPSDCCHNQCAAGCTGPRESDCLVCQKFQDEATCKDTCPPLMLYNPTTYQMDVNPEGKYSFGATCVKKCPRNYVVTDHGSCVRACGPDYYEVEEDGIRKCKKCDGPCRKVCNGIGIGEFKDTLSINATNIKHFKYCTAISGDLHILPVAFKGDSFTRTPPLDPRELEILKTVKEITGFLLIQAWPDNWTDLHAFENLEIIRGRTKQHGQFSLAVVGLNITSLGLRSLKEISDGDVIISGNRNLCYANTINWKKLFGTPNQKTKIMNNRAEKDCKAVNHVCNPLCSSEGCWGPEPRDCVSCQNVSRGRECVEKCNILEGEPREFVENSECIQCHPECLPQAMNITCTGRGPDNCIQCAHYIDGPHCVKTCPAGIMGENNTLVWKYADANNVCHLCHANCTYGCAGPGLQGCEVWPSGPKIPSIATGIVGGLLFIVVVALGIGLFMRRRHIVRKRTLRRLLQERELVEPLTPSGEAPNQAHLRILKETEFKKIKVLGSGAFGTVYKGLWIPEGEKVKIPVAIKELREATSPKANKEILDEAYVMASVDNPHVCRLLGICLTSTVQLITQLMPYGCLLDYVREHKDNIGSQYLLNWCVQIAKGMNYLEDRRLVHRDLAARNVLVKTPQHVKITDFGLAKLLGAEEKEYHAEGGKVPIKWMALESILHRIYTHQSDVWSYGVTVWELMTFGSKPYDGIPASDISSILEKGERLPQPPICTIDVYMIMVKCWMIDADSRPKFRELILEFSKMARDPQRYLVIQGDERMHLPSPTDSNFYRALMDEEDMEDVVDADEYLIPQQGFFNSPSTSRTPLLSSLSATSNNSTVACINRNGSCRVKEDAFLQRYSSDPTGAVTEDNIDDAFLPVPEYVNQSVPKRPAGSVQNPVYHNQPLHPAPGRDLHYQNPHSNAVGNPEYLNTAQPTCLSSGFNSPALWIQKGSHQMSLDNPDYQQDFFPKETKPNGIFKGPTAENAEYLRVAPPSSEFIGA

Row | SMILES | IC50 [1] [µM] | Kd [2] [mM] | solubility [3] [µM] | chromatographic logD [4]
1 | O=C(Nc1ccccc1)NC1CCCC1 | 200 | 1 | 85 (≈ 17.4 µg/mL) | 2.4
2 | CN(C(=O)Nc1ccccc1)C1CCCC1 | > 1000 | 2 | 98 (≈ 21.4 µg/mL) | 2.8
3 | O=C(Nc1ccccn1)NC1CCCC1 | 398 | 0.398 | 93 (≈ 19.1 µg/mL) | 2.4
4 | CN(C(=O)N(C)C1CCCC1)c1ccccc1 | 126 | 3.16 | 77 (≈ 17.9 µg/mL) | 3.6
5 | CN(C(=O)N(C)C1CCCC1)c1ccccn1 | > 1000 | 15.8 | 114 (≈ 26.6 µg/mL) | 2.2
6 | CN(C(=O)NC1CCCC1)c1ccccn1 | > 1000 | 1.58 | 87 (≈ 19.1 µg/mL) | 3
7 | CN(C(=O)Nc1ccccn1)C1CCCC1 | 794 | 2.51 | 102 (≈ 22.4 µg/mL) | 2.1
8 | CN(C(=O)NC1CCCC1)c1ccccc1 | 100 | 7.94 | 104 (≈ 22.7 µg/mL) | 2.7
